Results taken from patent publication US20100120887A1, “SUSTAINED RELEASE FORMULATION OF MELATONIN” (THE TRUSTEES OF COLUMBIA UNIVERSITY IN THE CITY OF NEW YORK, priority 2007, published 2010).

Assay: Initial clinical evaluation, open clinical treatment of circadian sleep disorders and depression (case reports)
Format: in vivo, human
Excerpt: The present invention describes tablet formulation, in vitro and in vivo pharmacokinetics in a healthy, middle-aged subject group, and a range of potential uses. In the past three years, the present invention has been used in open clinical treatment of a variety of cases comprising circadian sleep disorders and depression. The strategy for treatment concentrates on serious cases, from which application to less severe cases—far more common population-wide—can be inferred. For example, in Delayed Sleep Phase Disorder (DSPD), the patient cannot fall asleep before wee hours of the night or early morning because of misalignment of the internal circadian timing system with external day and night. […] Melatonin is the chronobiotic par exemplar. Milder circadian misalignment is highly prevalent in the population, often starting in adolescence. A typical example is the worker who must maintain a 9-5 schedule but cannot fall asleep before 1 AM (“early insomnia”), leaving six hours for sleep availability, leading to daytime fatigue, disorientation, lapses of alertness, and weekend oversleeping that can trigger depressed mood. Such people comprise a primary market for the present invention, with the prospect of reduced reliance on sleeping pills.
Thus far, an ensemble of chronotherapeutic interventions has been used in clinical trials. […]

SMILES: COc1ccc2[nH]cc(CCNC(C)=O)c2c1 [melatonin, N-acetyl-5-methoxytryptamine]
- sleep onset and depressive symptoms under treatment (Case 2: seasonal depression, sleep not before 1 AM, melatonin at 6:30 PM plus light therapy 45 minutes): go to sleep at 11:30 PM with remission of depressive symptoms
- sleep onset under treatment (Case 3: history of seasonal depression, melatonin around 9 PM plus intermittent light therapy): able to sleep at midnight without effort
